For one data set, the system named is K562. Briefly: Cytotoxicity against human K562 cells after 72 hrs by Alamar blue assay. To be noted: K562, 72 h. Type of data set: functional.
The test system of another data set is HCT-116. The data set can be described thus: Cytotoxicity against human HCT116 cells after 72 hrs by Alamar blue assay. The conditions noted are these: HCT-116, 72 h. Type of data set: functional. For orientation: Alamar Blue is a resazurin reagent that responds to reducing activity.
Another data set has as its system NCI-H1299. Briefly: Cytotoxicity against human NCI-H1299 cells after 72 hrs by Alamar blue assay. The conditions noted are these: NCI-H1299, 72 h. The data set is classed as functional.
Another data set concerns BXPC-3. Briefly: Cytotoxicity against human BxPC3 cells after 72 hrs by Alamar blue assay. The data set is classed as functional. The conditions noted are these: BXPC-3, 72 h.
The nature of data set [1]: Solubility of the compound in phosphate buffered saline at pH 7.4 after 2 hrs by turbidimetric analysis. Type of data set: physicochemical.
The nature of data set [2]: Cytotoxicity against wild type human KB-3-1 cells. Type of data set: functional.
Data set [3] can be described thus: Cytotoxicity against human KBV1 cells expressing p-glycoprotein. Type of data set: functional. The conditions noted are these: KB-V1.
The test system of the next data set is KB-V1. Briefly: Multidrug resistant ratio of GI50 for human KBV1 cells expressing p-glycoprotein to GI50 for wild type human KB-3-1 cells. Type of data set: functional.
Data set [4] concerns the target T1, Kinesin-like protein KIF11 (Homo sapiens, UniProt P52732).
T1 sequence (P52732 whole entry): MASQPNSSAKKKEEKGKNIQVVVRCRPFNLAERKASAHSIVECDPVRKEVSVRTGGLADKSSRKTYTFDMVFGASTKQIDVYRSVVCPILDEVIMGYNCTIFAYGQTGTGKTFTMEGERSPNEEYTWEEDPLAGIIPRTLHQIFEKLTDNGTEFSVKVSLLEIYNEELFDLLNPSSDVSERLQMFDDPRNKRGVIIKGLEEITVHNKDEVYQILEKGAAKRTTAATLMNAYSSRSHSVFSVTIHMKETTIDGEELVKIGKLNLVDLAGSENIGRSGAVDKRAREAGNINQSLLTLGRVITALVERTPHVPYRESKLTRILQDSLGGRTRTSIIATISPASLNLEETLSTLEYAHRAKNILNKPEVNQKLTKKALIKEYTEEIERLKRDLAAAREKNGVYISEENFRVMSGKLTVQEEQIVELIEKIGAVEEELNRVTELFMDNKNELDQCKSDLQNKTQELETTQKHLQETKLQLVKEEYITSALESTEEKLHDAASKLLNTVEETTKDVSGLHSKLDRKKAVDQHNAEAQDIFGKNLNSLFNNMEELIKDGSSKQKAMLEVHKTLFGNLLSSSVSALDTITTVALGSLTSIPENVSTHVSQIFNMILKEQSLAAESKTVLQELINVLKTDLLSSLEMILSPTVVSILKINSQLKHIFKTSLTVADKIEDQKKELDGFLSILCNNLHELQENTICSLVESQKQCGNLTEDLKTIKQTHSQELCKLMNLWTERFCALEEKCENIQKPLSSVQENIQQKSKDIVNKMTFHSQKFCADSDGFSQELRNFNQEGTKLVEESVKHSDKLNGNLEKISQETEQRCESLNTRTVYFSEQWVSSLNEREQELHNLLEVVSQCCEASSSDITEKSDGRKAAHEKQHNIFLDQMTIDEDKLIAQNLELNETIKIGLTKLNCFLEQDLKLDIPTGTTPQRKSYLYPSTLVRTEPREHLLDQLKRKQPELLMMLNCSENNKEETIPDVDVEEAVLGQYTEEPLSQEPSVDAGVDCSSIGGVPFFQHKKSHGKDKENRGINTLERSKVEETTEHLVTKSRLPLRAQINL
Description: Inhibition of basal ATPase activity of Eg5 by coupled pyruvate kinase/lactate dehydrogenase assay

In brackets after ≈: the same amount, converted by molar mass.

A word on the GI50: it is the concentration giving 50% growth inhibition. One may read the kinetic solubility as the concentration staying in solution when a stock, usually in DMSO, is diluted into the medium. One may read the IC50 as the concentration at which inhibition is half-maximal. Read a high IC50 as weaker potency in that assay. Turning to `N[C@@H](CSC(Cc1ccccc1)(c1ccccc1)c1ccccc1)C(=O)O`, the GI50 is 3.14 µM in the data set on K562; 2370 nM in the data set with HCT-116; 6.87 µM in the data set on NCI-H1299; 14.3 µM in the data set on BXPC-3; 5.33 µM in [2]; more than 50 µM in data set [3]. In addition, the solubility (kinetic) at 2 h in data set [1] was more than 100 µM. For the same compound, the RatioGI50 in the data set with KB-V1 is recorded as more than 10. The same compound displayed an IC50 in data set [4] of 138 nM.

With `NCCSC(Cc1ccccc1)(c1ccccc1)c1ccccc1`, the kinetic solubility at 2 h in data set [1] is more than 100 µM. This compound gave an IC50 in data set [4] of 684 nM.

Consider `N[C@@H](CSC(CCc1ccccc1)(c1ccccc1)c1ccccc1)C(=O)O`, for which the IC50 in data set [4] turned out to be 15800 nM.

Compound `N[C@@H](CSC(C(=O)c1ccccc1)(c1ccccc1)c1ccccc1)C(=O)O` yielded an IC50 in data set [4] of more than 150000 nM.

Compound `N[C@@H](CSC(Cc1cccc(Cl)c1)(c1ccccc1)c1ccccc1)C(=O)O` yielded an IC50 in data set [4] of 238 nM.

For `N[C@@H](CSC(Cc1ccc(Cl)cc1)(c1ccccc1)c1ccccc1)C(=O)O`, the IC50 in [4] was determined as 456 nM.

`N[C@@H](CSC(Cc1ccc(Cl)c(Cl)c1)(c1ccccc1)c1ccccc1)C(=O)O`: in data set [4], the IC50 was found to be 5280 nM.

In the case of `NCCSC(c1ccccc1)(c1ccccc1)c1ccncc1`, the IC50 in data set [4] came out at 942 nM.

In turn, `NCCSC(C(=O)c1ccccc1)(c1ccccc1)c1ccccc1` showed an IC50 in [4] of more than 50000 nM.

In [4], `N[C@@H](CSC(Cc1ccccc1)(c1ccc(Cl)cc1)c1ccc(Cl)cc1)C(=O)O` gave a 50% inhibitory concentration (IC50) of 252 nM.

In the case of `Cc1ccc(C(Cc2ccccc2)(SC[C@H](N)C(=O)O)c2ccc(C)cc2)cc1`, the 50% growth inhibitory concentration (GI50) with K562 came to 2.79 µM. In data set [4], this compound returned an IC50 of 106 nM.

As to `NCCSC(Cc1ccccc1)(c1ccc(F)cc1)c1ccc(F)cc1`, the IC50 in data set [4] was 588 nM.

Turning to `NCCSC(Cc1ccccc1)(c1ccc(Cl)cc1)c1ccc(Cl)cc1`, the half-maximal inhibitory concentration (IC50) in [4] came out at 404 nM.

`Cc1ccc(C(Cc2ccccc2)(SCCN)c2ccc(C)cc2)cc1` displayed an IC50 in data set [4] of 261 nM.

`N[C@@H](CSC(c1ccccc1)(c1ccccc1)c1ccncc1)C(=O)O`: in data set [4], the half-inhibitory concentration (IC50) was 514 nM.

In [4], `NCCSC(c1ccccc1)(c1ccccc1)c1ccccc1` yielded an IC50 of 241 nM.

Take `N[C@@H](CSC(Cc1ccccc1)(c1ccccc1)c1ccccc1F)C(=O)O` (mixture of isomers): the IC50 in data set [4] is 217 nM.

`N[C@@H](CSC(Cc1ccccc1)(c1ccccc1)c1cccc(Cl)c1)C(=O)O` (mixture of isomers): the GI50 with K562 amounted to 4.54 µM. The IC50 in [4] came out at 129 nM.

`N[C@@H](CSC(Cc1ccccc1)(c1ccccc1)c1cccc(O)c1)C(=O)O` (mixture of isomers): the GI50 in the data set with K562 came to 17.7 µM. The compound also showed an IC50 in [4] of 67.6 nM.

For `N[C@@H](CSC(Cc1ccccc1)(c1ccccc1)c1ccc(F)cc1)C(=O)O` (mixture of isomers), halving of growth in the data set with K562 (GI50) required 6.09 µM. The compound also registered an IC50 in data set [4] of 151 nM.

For `N[C@@H](CSC(Cc1ccccc1)(c1ccccc1)c1ccc(Cl)cc1)C(=O)O` (mixture of isomers), the GI50 with K562 was 2.47 µM; in the data set on HCT-116 it was 2080 nM; with NCI-H1299 it was 3.63 µM; with BXPC-3 it was 3.79 µM; in data set [2], 4.89 µM; in [3], more than 50 µM. Besides, the RatioGI50 in the data set on KB-V1 is recorded as more than 10. Further, the IC50 in data set [4] amounted to 58.6 nM.

With `Cc1ccc(C(Cc2ccccc2)(SC[C@H](N)C(=O)O)c2ccccc2)cc1` (mixture of isomers), the GI50 in the data set on K562 was 1.44 µM; in the data set on HCT-116, 1490 nM; in the data set on NCI-H1299, 2.43 µM; with BXPC-3, 4.33 µM; in data set [2], 2.44 µM; in data set [3], more than 50 µM. For the same compound, the kinetic solubility at 2 h in data set [1] came to 11.5 µM. Besides, the RatioGI50 in the data set with KB-V1 was more than 20. In addition, in data set [4], 168 nM corresponded to half-maximal inhibition (IC50).

As for `N[C@@H](CSC(Cc1ccccc1)(c1ccccc1)c1ccc(O)cc1)C(=O)O` (mixture of isomers), the 50% growth inhibitory concentration (GI50) with K562 was 18.2 µM. The compound also yielded a 50% inhibitory concentration (IC50) in [4] of 159 nM.

Turning to `N[C@@H](CSC(Cc1ccccc1)(c1ccccc1)c1ccc(Cl)c(Cl)c1)C(=O)O` (mixture of isomers), the midpoint of inhibition in data set [4], the IC50, lay at 191 nM.

In data set [4], `N[C@@H](CSC(Cc1ccccc1)(c1ccc(Cl)cc1)c1cccc(Cl)c1)C(=O)O` (mixture of isomers) showed a half-maximal inhibitory concentration (IC50) of 568 nM.

In the data set with K562, `N[C@@H](CSC(Cc1ccccc1)(c1ccc(F)cc1)c1ccc(F)cc1)C(=O)O` (mixture of isomers) registered a GI50 of 5.12 µM. Also, in [4], the IC50 came out at 178 nM.

In turn, `NCCSC(Cc1ccccc1)(c1ccccc1)c1ccccc1F` (racemic) had an IC50 in [4] of 790 nM.

The compound `NCCSC(Cc1ccccc1)(c1ccccc1)c1cccc(Cl)c1` (racemic) registered an IC50 in data set [4] of 519 nM.

`NCCSC(Cc1ccccc1)(c1ccccc1)c1cccc(O)c1` (racemic) displayed a GI50 with K562 of 2.73 µM. This compound gave an IC50 in [4] of 256 nM.

On to `NCCSC(Cc1ccccc1)(c1ccccc1)c1ccc(F)cc1` (racemic), for which, in [4], the IC50 is 578 nM.

As for `NCCSC(Cc1ccccc1)(c1ccccc1)c1ccc(Cl)cc1` (racemic), the GI50 with K562 came out at 3.72 µM; in the data set on HCT-116 it was 2050 nM; in the data set on NCI-H1299, 6.79 µM; in the data set with BXPC-3, 4.26 µM; in data set [2], 5.55 µM; in [3], 5.78 µM. In the data set on KB-V1, the RatioGI50 is 1. The compound further yielded an IC50 in data set [4] of 141 nM.

Take `Cc1ccc(C(Cc2ccccc2)(SCCN)c2ccccc2)cc1` (racemic): the GI50 was 2.39 µM in the data set on K562; 1170 nM with HCT-116; 2.5 µM with NCI-H1299; 4.07 µM in the data set on BXPC-3; 1.88 µM in data set [2]; 1.72 µM in data set [3]. This compound also showed a solubility (kinetic) at 2 h in [1] of 6.5 µM (≈ 2.26 µg/mL). The RatioGI50 with KB-V1 is reported as 1. Also, in [4], the IC50 came out at 172 nM.

In turn, `NCCSC(Cc1ccccc1)(c1ccccc1)c1ccc(O)cc1` (racemic) showed an IC50 in data set [4] of 666 nM.

For the compound `NCCSC(Cc1ccccc1)(c1ccccc1)c1ccc(Cl)c(Cl)c1` (racemic), the 50% inhibitory concentration (IC50) in [4] was 229 nM.

For `NCCSC(Cc1ccccc1)(c1ccc(Cl)cc1)c1cccc(Cl)c1` (racemic), the IC50 in [4] was 437 nM.

Source of the values: ChEMBL document CHEMBL2040733, “Doing the methylene shuffle--further insights into the inhibition of mitotic kinesin Eg5 with S-trityl L-cysteine” (Eur J Med Chem, 2012).
